According to article PMC3348135, “Identification of New Agonists and Antagonists of the Insect Odorant Receptor Co-Receptor Subunit” (PLoS ONE, 2012):

Tests used:
Cqui\Orco = assay: Agonist activation of homomeric Cqui\Orco in Xenopus oocytes, two-electrode voltage clamp; assay type: cell-based, Culex quinquefasciatus; conditions: 100 µM compound; mean ± SEM, n=3-8
Onub\Orco + Onub\Or1 = assay: Agonist activation of Onub\Orco + Onub\Or1 in Xenopus oocytes, two-electrode voltage clamp; assay type: cell-based, Ostrinia nubilalis; conditions: 100 µM compound; mean ± SEM, n=3-8
Dmel\Orco + Dmel\Or35a = target: T1, Dmel\Orco + Dmel\Or35a (Drosophila melanogaster, UniProt Q9VNB5); assay: Inhibition of odorant (hexanol) activation of Dmel\Orco + Dmel\Or35a in Xenopus oocytes; assay type: cell-based; conditions: 3 µM hexanol; OLC2 100 µM, OLC15 50 µM, OLC20 200 µM
T1 construct: expressed in transfected cells; host or cells: Xenopus laevis oocytes (cRNA injection, pGEMHE)
T1 sequence (Q9VNB5 1-486): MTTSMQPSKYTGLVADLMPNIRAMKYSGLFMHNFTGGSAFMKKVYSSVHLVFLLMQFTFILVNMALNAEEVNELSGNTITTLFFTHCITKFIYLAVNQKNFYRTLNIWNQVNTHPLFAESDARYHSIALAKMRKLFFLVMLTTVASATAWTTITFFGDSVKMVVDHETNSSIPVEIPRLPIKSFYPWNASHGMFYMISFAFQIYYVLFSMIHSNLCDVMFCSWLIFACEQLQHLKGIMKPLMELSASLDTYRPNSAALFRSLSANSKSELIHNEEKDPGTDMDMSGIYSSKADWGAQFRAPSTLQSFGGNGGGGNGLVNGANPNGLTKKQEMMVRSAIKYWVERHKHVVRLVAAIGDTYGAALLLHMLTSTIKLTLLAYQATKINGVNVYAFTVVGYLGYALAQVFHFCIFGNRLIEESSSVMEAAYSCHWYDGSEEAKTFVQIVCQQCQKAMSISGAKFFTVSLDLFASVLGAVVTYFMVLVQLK
T1 sequence (Q9V3Q2 1-409 partner): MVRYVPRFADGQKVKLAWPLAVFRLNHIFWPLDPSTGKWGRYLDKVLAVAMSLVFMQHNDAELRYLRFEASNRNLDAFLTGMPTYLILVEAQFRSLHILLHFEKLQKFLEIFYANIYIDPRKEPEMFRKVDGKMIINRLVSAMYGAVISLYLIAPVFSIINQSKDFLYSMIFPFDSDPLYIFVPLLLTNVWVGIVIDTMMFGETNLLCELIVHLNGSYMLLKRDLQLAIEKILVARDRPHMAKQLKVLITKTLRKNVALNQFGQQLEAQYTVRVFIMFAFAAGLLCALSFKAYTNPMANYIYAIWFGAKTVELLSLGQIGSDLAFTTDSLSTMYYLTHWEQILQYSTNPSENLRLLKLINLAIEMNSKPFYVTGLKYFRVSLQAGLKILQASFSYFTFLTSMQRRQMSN
Description: Oocytes were surgically removed from mature Xenopus laevis frogs. Follicle cells were removed by treatment with Collagenase B (Boehringer Mannhem) for 2 hours at room temperature. Capped cRNA encoding each DmOR subunit was generated using mMessage mMachine kits (Ambion). For heteromeric ORs, 25 ng of cRNA encoding each OR subunit was injected into Stage V-VI Xenopus oocytes. For expression of Orco alone, 50 ng of cRNA was injected. Oocytes were incubated at 18°C in Barth’s saline (in mM: 88 NaCl, 1 KCl, 2.4 NaHCO3, 0.3 CaNO3, 0.41 CaCl2, 0.82 MgSO4, 15 HEPES, pH 7.6, and 150 µg/ml ceftazidime) for 2–5 days prior to electrophysiological recording.
(§1) Odorant and Orco ligand induced currents were recorded under two-electrode voltage clamp in Xenopus laevis oocytes expressing ORs, using an automated parallel electrophysiology system (OpusExpress 6000A; Molecular Devices). Oocytes were perfused with ND96 (in mM: 96 NaCl, 2 KCl, 1 CaCl2, 1 MgCl2, 5 HEPES, pH 7.5). Odorant stock solutions (0.5 or 1 M) and Orco ligand stock solutions (100 mM) were prepared in DMSO and diluted in ND96. Unless otherwise noted, applications were for 60 sec at a flow rate of 1.0 ml/min, with extensive washing in ND96 (9 or 20 min at 4.6 ml/min) between applications. Micropipettes were filled with 3 M KCl and had resistances of 0.2−2.0 MΩ. The holding potential was −70 mV. Current responses, filtered (4-pole, Bessel, low pass) at 20 Hz (−3 db) and sampled at 100 Hz, were captured and stored using OpusXpress 1.1 software (Molecular Devices).
In inhibition assays, oocytes were exposed to 60 sec applications of OLC12 with 9 min washes between applications (Fig. 3 and 4) or 60 sec applications of odorant with 20 min washes between applications (Fig. 5). […]
Initial analysis of electrophysiological data was done using Clampfit 9.1 software (Molecular Devices). […] Statistical significance was assessed using a two-tailed unpaired t test, an F test, or a one-way analysis of variance followed by the Bonferroni’s post-test, as appropriate.

Agam\Orco + Agam\Or65 = target: T2, Agam\Orco + Agam\Or65 (Anopheles gambiae, UniProt Q7QCC7); assay: Inhibition of odorant (eugenol) activation of Agam\Orco + Agam\Or65 in Xenopus oocytes; assay type: cell-based, A. gambiae; conditions: 100 nM eugenol; OLC compound 100 µM
T2 construct: expressed in transfected cells; host or cells: Xenopus laevis oocytes (cRNA injection; vectors pSP64T-Oligo and pT7TS)
T2 sequence (Q7QCC7 1-478): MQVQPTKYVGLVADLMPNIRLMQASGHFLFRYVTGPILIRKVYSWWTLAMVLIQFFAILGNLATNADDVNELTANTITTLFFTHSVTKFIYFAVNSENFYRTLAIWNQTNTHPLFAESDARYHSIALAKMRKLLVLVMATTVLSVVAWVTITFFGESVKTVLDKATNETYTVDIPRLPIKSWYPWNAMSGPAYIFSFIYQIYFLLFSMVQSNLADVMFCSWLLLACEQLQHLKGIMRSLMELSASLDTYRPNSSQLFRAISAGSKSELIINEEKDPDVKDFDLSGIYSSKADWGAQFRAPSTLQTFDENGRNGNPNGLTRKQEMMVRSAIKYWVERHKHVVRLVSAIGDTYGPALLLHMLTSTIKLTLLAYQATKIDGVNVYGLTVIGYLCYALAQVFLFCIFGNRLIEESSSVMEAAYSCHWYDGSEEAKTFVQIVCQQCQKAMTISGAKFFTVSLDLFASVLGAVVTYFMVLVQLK

[1] = Solubility in recording solution (observation); assay type: physicochemical; conditions: aqueous recording solution, higher concentrations (OLC2: above 100 µM)
Description: as §1

Row | SMILES | Response amplitude as percentage of response to 100 µM OLC3, Cqui\Orco (Cqui\Orco) [%] | Response amplitude as percentage of response to 100 µM OLC3, Onub\Orco + Onub\Or1 (Onub\Orco + Onub\Or1) [%] | Inhibition of the hexanol response of Dmel\Orco+Dmel\Or35a (Dmel\Orco + Dmel\Or35a) | Inhibition of activation of Agam\Orco+Agam\Or65 by eugenol (Agam\Orco + Agam\Or65) | Solubility [1]
1 | CCc1ccc(NC(=O)CSc2nnc(-c3ccccn3)n2CC)cc1 [OLC2] | 0 | 9 ± 2 | did not inhibit | inhibited | poor solubility
2 | CCCCc1ccc(NC(=O)CSc2nnc(-c3ccccn3)n2CC)cc1 [OLC15] | 0 |  | substantial inhibition | inhibited | 
